{"source": "ChEMBL document CHEMBL4732071", "about": "“Discovery of selective HDAC/BRD4 dual inhibitors as epigenetic probes” (Eur J Med Chem, 2021)", "data": [{"target": "Histone deacetylase 1 (Homo sapiens, UniProt Q13547)", "sequence (Q13547 whole entry)": "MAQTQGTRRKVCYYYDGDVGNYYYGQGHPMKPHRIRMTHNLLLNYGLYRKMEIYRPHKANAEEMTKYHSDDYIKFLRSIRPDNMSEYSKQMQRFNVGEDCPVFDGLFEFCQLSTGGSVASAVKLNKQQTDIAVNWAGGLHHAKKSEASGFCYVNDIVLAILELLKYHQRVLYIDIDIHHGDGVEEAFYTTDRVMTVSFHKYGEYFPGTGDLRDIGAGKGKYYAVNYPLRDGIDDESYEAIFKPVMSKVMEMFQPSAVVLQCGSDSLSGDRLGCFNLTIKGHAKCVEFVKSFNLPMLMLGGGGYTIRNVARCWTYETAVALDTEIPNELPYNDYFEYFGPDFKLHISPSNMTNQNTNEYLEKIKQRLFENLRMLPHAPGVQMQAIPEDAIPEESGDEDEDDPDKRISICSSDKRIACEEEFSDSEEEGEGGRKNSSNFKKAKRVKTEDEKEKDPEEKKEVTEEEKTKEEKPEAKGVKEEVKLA", "assay": "Inhibition of HDAC1 (unknown origin) by fluorescence based assay", "details": "not given", "units": {"IC50": "nM"}, "values": [{"molecule": "Cc1ccccc1-c1cn(C)c(=O)c2[nH]c(C(=O)NCc3ccc(C(=O)Nc4ccccc4N)cc3)cc12", "IC50": 63.9}, {"molecule": "Cc1cc(F)cc(C)c1Oc1ccc(C(C)(C)O)cc1-c1cn(C)c(=O)c2[nH]c(C(=O)NCc3ccc(C(=O)Nc4ccccc4N)cc3)cc12", "IC50": "> 500"}, {"molecule": "Cn1cc(-c2ccccc2)c2cc(C(=O)NCc3ccc(C(=O)Nc4ccccc4N)cc3)[nH]c2c1=O", "IC50": 52}, {"molecule": "Cc1cc(F)cc(C)c1Oc1ccc(C(C)(C)O)cc1-c1cn(C)c(=O)c2[nH]c(C(=O)NCc3ccc(C(=O)NO)cc3)cc12", "IC50": 293}, {"molecule": "COc1cccc(-c2cn(C)c(=O)c3[nH]c(C(=O)NCc4ccc(C(=O)Nc5ccccc5N)cc4)cc23)c1", "IC50": 54.5}, {"molecule": "Cc1ccc(-c2cn(C)c(=O)c3[nH]c(C(=O)NCc4ccc(C(=O)Nc5ccccc5N)cc4)cc23)cc1", "IC50": 94}, {"molecule": "Cn1cc(-c2ccc(Cl)cc2)c2cc(C(=O)NCc3ccc(C(=O)Nc4ccccc4N)cc3)[nH]c2c1=O", "IC50": 59.3}, {"molecule": "CC(C)Oc1ccccc1-c1cn(C)c(=O)c2[nH]c(C(=O)NCc3ccc(C(=O)Nc4ccccc4N)cc3)cc12", "IC50": 116}, {"molecule": "Cn1cc(-c2cc(C(C)(C)O)ccc2Oc2ccc(F)cc2F)c2cc(C(=O)NCc3ccc(C(=O)Nc4ccccc4N)cc3)[nH]c2c1=O", "IC50": 164}, {"molecule": "Cn1cc(-c2cccc(C(F)(F)F)c2)c2cc(C(=O)NCc3ccc(C(=O)Nc4ccccc4N)cc3)[nH]c2c1=O", "IC50": "> 500"}]}, {"target": "T1, Protein deacetylase HDAC6 (Homo sapiens, UniProt Q9UBN7)", "T1 sequence (Q9UBN7 whole entry)": "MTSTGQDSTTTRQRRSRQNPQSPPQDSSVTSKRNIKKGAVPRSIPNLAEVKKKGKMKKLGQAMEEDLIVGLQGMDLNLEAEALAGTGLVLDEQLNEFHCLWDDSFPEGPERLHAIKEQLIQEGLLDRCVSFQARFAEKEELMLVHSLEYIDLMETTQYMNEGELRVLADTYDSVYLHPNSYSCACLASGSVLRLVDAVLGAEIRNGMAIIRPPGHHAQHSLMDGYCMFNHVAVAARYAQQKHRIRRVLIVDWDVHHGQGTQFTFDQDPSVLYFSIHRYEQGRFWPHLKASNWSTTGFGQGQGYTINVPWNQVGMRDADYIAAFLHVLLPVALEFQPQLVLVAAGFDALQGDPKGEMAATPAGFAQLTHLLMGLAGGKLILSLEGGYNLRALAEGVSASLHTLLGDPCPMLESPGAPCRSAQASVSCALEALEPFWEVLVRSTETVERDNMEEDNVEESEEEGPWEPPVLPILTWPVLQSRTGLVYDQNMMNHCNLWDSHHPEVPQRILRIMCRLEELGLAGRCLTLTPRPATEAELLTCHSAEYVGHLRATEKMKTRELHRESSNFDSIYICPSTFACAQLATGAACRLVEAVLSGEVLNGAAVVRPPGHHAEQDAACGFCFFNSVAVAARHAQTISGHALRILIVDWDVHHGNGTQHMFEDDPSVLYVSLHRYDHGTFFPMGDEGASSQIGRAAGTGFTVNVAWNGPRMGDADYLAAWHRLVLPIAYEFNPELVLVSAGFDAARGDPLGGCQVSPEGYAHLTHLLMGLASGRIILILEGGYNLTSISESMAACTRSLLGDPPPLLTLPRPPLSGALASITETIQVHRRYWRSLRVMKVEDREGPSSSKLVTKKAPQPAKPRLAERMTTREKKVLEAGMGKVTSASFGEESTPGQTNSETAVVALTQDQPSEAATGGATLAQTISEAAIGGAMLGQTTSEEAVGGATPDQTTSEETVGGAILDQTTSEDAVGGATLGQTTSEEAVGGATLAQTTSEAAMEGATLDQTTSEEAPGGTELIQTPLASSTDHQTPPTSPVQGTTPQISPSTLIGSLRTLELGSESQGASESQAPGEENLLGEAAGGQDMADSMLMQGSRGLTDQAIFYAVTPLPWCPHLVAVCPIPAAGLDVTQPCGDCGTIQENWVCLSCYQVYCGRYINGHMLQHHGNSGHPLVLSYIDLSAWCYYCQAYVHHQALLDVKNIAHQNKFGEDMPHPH", "assay": "Inhibition of HDAC6 (unknown origin) by fluorescence based assay", "details": "not given", "units": {"IC50": "nM"}, "values": [{"molecule": "Cc1cc(F)cc(C)c1Oc1ccc(C(C)(C)O)cc1-c1cn(C)c(=O)c2[nH]c(C(=O)NCc3ccc(C(=O)NO)cc3)cc12", "IC50": 39.3}]}, {"tested_on": "MV4-11", "assay": "Antiproliferative activity against human MV4-11 cells assessed as cell viability after 72 hrs by CCK8 assay", "assay_type": "functional, cell-based", "details": "MV4-11, 72 h", "units": {"IC50": "nM"}, "values": [{"molecule": "Cc1ccccc1-c1cn(C)c(=O)c2[nH]c(C(=O)NCc3ccc(C(=O)Nc4ccccc4N)cc3)cc12", "IC50": 310}, {"molecule": "Cc1cc(F)cc(C)c1Oc1ccc(C(C)(C)O)cc1-c1cn(C)c(=O)c2[nH]c(C(=O)NCc3ccc(C(=O)Nc4ccccc4N)cc3)cc12", "IC50": 240}, {"molecule": "Cn1cc(-c2ccccc2)c2cc(C(=O)NCc3ccc(C(=O)Nc4ccccc4N)cc3)[nH]c2c1=O", "IC50": 230}, {"molecule": "Cc1cc(F)cc(C)c1Oc1ccc(C(C)(C)O)cc1-c1cn(C)c(=O)c2[nH]c(C(=O)NCc3ccc(C(=O)NO)cc3)cc12", "IC50": 440}, {"molecule": "COc1cccc(-c2cn(C)c(=O)c3[nH]c(C(=O)NCc4ccc(C(=O)Nc5ccccc5N)cc4)cc23)c1", "IC50": 250}, {"molecule": "CC(C)Oc1ccccc1-c1cn(C)c(=O)c2[nH]c(C(=O)NCc3ccc(C(=O)Nc4ccccc4N)cc3)cc12", "IC50": 130}, {"molecule": "Cn1cc(-c2cc(C(C)(C)O)ccc2Oc2ccc(F)cc2F)c2cc(C(=O)NCc3ccc(C(=O)Nc4ccccc4N)cc3)[nH]c2c1=O", "IC50": 90}]}, {"target": "T2, Bromodomain-containing protein 4 (Homo sapiens, UniProt O60885)", "assay": "Inhibition of His-tagged BRD4 bromodomain 2 (unknown origin) using [Lys (5,8,12,16) Ac] H4(1-21) as substrate by fluorescence based assay", "details": "not given", "units": {"IC50": "nM"}, "values": [{"molecule": "Cc1ccccc1-c1cn(C)c(=O)c2[nH]c(C(=O)NCc3ccc(C(=O)Nc4ccccc4N)cc3)cc12", "IC50": 149}, {"molecule": "Cc1cc(F)cc(C)c1Oc1ccc(C(C)(C)O)cc1-c1cn(C)c(=O)c2[nH]c(C(=O)NCc3ccc(C(=O)Nc4ccccc4N)cc3)cc12", "IC50": 36.6}, {"molecule": "Cn1cc(-c2ccccc2)c2cc(C(=O)NCc3ccc(C(=O)Nc4ccccc4N)cc3)[nH]c2c1=O", "IC50": 75.8}, {"molecule": "Cc1cc(F)cc(C)c1Oc1ccc(C(C)(C)O)cc1-c1cn(C)c(=O)c2[nH]c(C(=O)NCc3ccc(C(=O)NO)cc3)cc12", "IC50": 1.5}, {"molecule": "COc1cccc(-c2cn(C)c(=O)c3[nH]c(C(=O)NCc4ccc(C(=O)Nc5ccccc5N)cc4)cc23)c1", "IC50": 116}, {"molecule": "Cc1ccc(-c2cn(C)c(=O)c3[nH]c(C(=O)NCc4ccc(C(=O)Nc5ccccc5N)cc4)cc23)cc1", "IC50": 122}, {"molecule": "Cn1cc(-c2ccc(Cl)cc2)c2cc(C(=O)NCc3ccc(C(=O)Nc4ccccc4N)cc3)[nH]c2c1=O", "IC50": 278}, {"molecule": "CC(C)Oc1ccccc1-c1cn(C)c(=O)c2[nH]c(C(=O)NCc3ccc(C(=O)Nc4ccccc4N)cc3)cc12", "IC50": 15.3}, {"molecule": "Cn1cc(-c2cc(C(C)(C)O)ccc2Oc2ccc(F)cc2F)c2cc(C(=O)NCc3ccc(C(=O)Nc4ccccc4N)cc3)[nH]c2c1=O", "IC50": 1.5}, {"molecule": "Cn1cc(-c2cccc(C(F)(F)F)c2)c2cc(C(=O)NCc3ccc(C(=O)Nc4ccccc4N)cc3)[nH]c2c1=O", "IC50": 313}]}, {"target": "T2, Bromodomain-containing protein 4", "assay": "Inhibition of His-tagged BRD4 bromodomain 1 (unknown origin) using [Lys (5,8,12,16) Ac] H4(1-21) as substrate by fluorescence based assay", "details": "not given", "units": {"IC50": "nM"}, "values": [{"molecule": "Cc1ccccc1-c1cn(C)c(=O)c2[nH]c(C(=O)NCc3ccc(C(=O)Nc4ccccc4N)cc3)cc12", "IC50": 117}, {"molecule": "Cc1cc(F)cc(C)c1Oc1ccc(C(C)(C)O)cc1-c1cn(C)c(=O)c2[nH]c(C(=O)NCc3ccc(C(=O)Nc4ccccc4N)cc3)cc12", "IC50": 229}, {"molecule": "Cn1cc(-c2ccccc2)c2cc(C(=O)NCc3ccc(C(=O)Nc4ccccc4N)cc3)[nH]c2c1=O", "IC50": 47.8}, {"molecule": "Cc1cc(F)cc(C)c1Oc1ccc(C(C)(C)O)cc1-c1cn(C)c(=O)c2[nH]c(C(=O)NCc3ccc(C(=O)NO)cc3)cc12", "IC50": 305}, {"molecule": "COc1cccc(-c2cn(C)c(=O)c3[nH]c(C(=O)NCc4ccc(C(=O)Nc5ccccc5N)cc4)cc23)c1", "IC50": 30.1}, {"molecule": "Cc1ccc(-c2cn(C)c(=O)c3[nH]c(C(=O)NCc4ccc(C(=O)Nc5ccccc5N)cc4)cc23)cc1", "IC50": 61}, {"molecule": "Cn1cc(-c2ccc(Cl)cc2)c2cc(C(=O)NCc3ccc(C(=O)Nc4ccccc4N)cc3)[nH]c2c1=O", "IC50": 62.4}, {"molecule": "CC(C)Oc1ccccc1-c1cn(C)c(=O)c2[nH]c(C(=O)NCc3ccc(C(=O)Nc4ccccc4N)cc3)cc12", "IC50": 22.8}, {"molecule": "Cn1cc(-c2cc(C(C)(C)O)ccc2Oc2ccc(F)cc2F)c2cc(C(=O)NCc3ccc(C(=O)Nc4ccccc4N)cc3)[nH]c2c1=O", "IC50": 18.1}, {"molecule": "Cn1cc(-c2cccc(C(F)(F)F)c2)c2cc(C(=O)NCc3ccc(C(=O)Nc4ccccc4N)cc3)[nH]c2c1=O", "IC50": 823}]}]}
